This is an account of results in patent US20240199561A1, “INHIBITORS OF DYRK AND PIM” (COLD SPRING HARBOR LABORATORY, priority 2021, published 2024).

One assay deals with PIM1 (Homo sapiens (Human), UniProt P11309). Description: Kinase assay, PIM1 IC50. Format: biochemical.
In assay [1] the test system is U87MG cells. Description: Neurosphere proliferation assay, U87MG. Format: cell-based. The conditions noted are these: for proliferation of U87MG cells, assessed by neurosphere diameter: 5 μM, 10 μM, and 20 μM, compared to DMSO vehicle control; for neurosphere proliferation: U87MG DYRK1A knockouts rescued with point mutant F238LM240R, compared to DYRK1A wild-type treated cells; for neurosphere proliferation (neurosphere numbers and size): U87MG, serum free conditions with growth factors. Here is the method: (§1) Neurospheres are free-floating 3-D clusters of neural stem cells that are grown in serum-free media supplemented with growth factors. These cells have the capacity to self-renew and differentiate into cell types present within the tumor of origin. They are also responsible for tumor propagation, recurrence and resistance to traditional treatments. Neurosphere assays are commonly used to uncover more relevant brain tumor biology than traditional culture conditions. Several parameters can be assayed including neurosphere number and size. Neurosphere formation remained a significant predictor of clinical outcome in GBM, independent of the Ki67 labeling index. […] Self-renewal is the ability of a single cell to form a neurosphere.
(§2) Two EGFR-dependent GBM cell-lines, U87MG and LN229 were grown under serum free conditions with growth factors to induce the formation of neurospheres. Their stemness was confirmed using a western blot to detect stem cell markers. […] This reaffirmed the fact that DYRK1A plays a crucial role in regulating neurosphere self-renewal in GBM.
Compounds of Formula I therefore have an anticancer potential and inhibit proliferation of cells with a cancer phenotype.

Assay [2] deals with U87MG cells. Description: Invasion assay (Matrigel), U87MG. Particulars: for ability of the cells to invade the Matrigel chamber / cell invasion (cells crossing matrigel membrane): U87MG; for invasion: U87MG DYRK1A knockouts rescued with point mutant F238LM240R, compared to DYRK1A wild-type treated cells; for cell invasion (cells crossing matrigel membrane): 5 μM and 10 μM, relative to DMSO vehicle. In kind it is cell-based. The text has this:
(§3) The Invasion Assay provides an in vitro system to study cell invasion of malignant and normal cells. Specific applications include assessment of the metastatic potential of tumor cells. Invasion chambers coated with Corning® Matrigel® matrix provide cells with the conditions that allow assessment of their invasive capacity in vitro. Corning Matrigel matrix serves as a reconstituted basement membrane in vitro, occluding the pores of the membrane and blocking non-invasive cells from migrating through the membrane. In contrast, invasive cells (malignant and non-malignant) secrete proteases that enzymatically degrade the Corning Matrigel matrix and enable invasion through the membrane pores.
(§4) In order to assess whether DYRK1A plays a role in cell invasion, we performed an invasion assay using the two GBM cell lines U87MG and LN229. […] Inhibition of DYRK1A using FC2 and FC3 can also decrease the metastatic potential of GBM cells, thus making them good therapeutic candidates for EGFR-dependent GBM.

Assay [3] addresses DYRK1A point mutants (Homo sapiens, UniProt Q13627, F238L). Put plainly: In-vitro radiolabeled kinase assays against DYRK1A point mutants. In kind it is biochemical. Particulars: F238L. The source says:
(§5) Kinase domains contain a gatekeeper residue that partially or fully blocks a hydrophobic region deep in the ATP binding pocket. The gatekeeper residue contributes to the selectivity of kinases for small molecule inhibitors. Based on the DYRK1A crystal structure with FC3 and sequence alignment, the gatekeeper residue in DYRK1A is Phe238 which is replaced by a smaller […] in case of PIM1 and other PIM kinases. Similarly, Met240, two residues after the gatekeeper residue was very unique to DYRK1A. Another interesting residue was Ser241 which was conserved among DYRKs. Point mutants of the gatekeeper residue (F238L), Met240 (M240R), […] and a double mutant (F238LM240R) were created to evaluate if the point mutants show resistance towards FC2 and FC3.
(§6) In-vitro radiolabeled kinase assays were used to determine the IC50s of FC2 and FC3 against the DYRK1A point mutants. There was no change in the Km or Vmax of the point mutants of DYRK1A and their activity was similar to wild-type DYRK1A.

The target of assay [4] is DYRK1A point mutants (Homo sapiens, UniProt Q13627, F238L/M240R). Described as above. Format: biochemical. The conditions noted are these: F238LM240R.
Description: as §5, §6

Assay [5] addresses DYRK1A point mutants (Homo sapiens, UniProt Q13627, M240R). Described as above. In kind it is biochemical. The conditions noted are these: M240R.
Description: as §5, §6

The target in assay [6] is panel of 140 different kinases. Put plainly: Panel of 140 different kinases. In kind it is biochemical.
Assay [7] relates to LN229. Put plainly: Invasion assay (Matrigel), LN229. Format: cell-based.
Description: as §3, §4

Assay [8] deals with LN229. Description: Neurosphere proliferation assay, LN229. Format: cell-based. The conditions noted are these: LN229, serum free conditions with growth factors. The procedure:
as §1, §2

The target of the next assay is DYRK1A (Homo sapiens (Human), UniProt Q13627). Put plainly: Radiolabelled kinase assay (IC50 determination), DYRK1A. The conditions noted are these: read-out: DYRK1A IC50 (nm).
Assay [9] deals with DYRK1A point mutants (Homo sapiens, UniProt Q13627, S242A). Description: In-vitro radiolabeled kinase assays against DYRK1A point mutants. Format: biochemical. The conditions noted are these: S242A.
Description: as §5, §6

Each structure is given as a SMILES string. “Also recorded” adds a separate entry of the source.

Chain of PIM1 (P11309 whole entry): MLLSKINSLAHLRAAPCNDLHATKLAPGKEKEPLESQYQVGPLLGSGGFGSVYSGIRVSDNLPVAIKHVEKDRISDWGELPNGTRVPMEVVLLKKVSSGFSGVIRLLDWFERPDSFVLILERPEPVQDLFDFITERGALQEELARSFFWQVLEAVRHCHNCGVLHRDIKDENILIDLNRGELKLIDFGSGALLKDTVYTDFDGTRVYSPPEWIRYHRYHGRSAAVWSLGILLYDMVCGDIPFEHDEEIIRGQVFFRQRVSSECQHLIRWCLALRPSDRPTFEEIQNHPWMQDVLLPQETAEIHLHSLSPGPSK

Regarding `Oc1ccc(-c2nc3cc4c(cc3s2)OCO4)cc1O` [FC-2, 4-([1,3]Dioxolo[4′,5′:4,5]benzo[1,2-d]thiazol-6-yl)benzene-1,2-diol], the “PIM1 IC50 (nm)” value on PIM1 was “Micromolar inhibition”. In addition, in the assay with U87MG cells [1], the “proliferation of U87MG cells, assessed by neurosphere diameter” value (“proliferation of U87MG cells, assessed” for short) is recorded as “significantly inhibited proliferation”; the neurosphere proliferation result is given as “did not show a decrease”; the “neurosphere proliferation (neurosphere numbers and size)” value is on record as “significant decrease in neurosphere proliferation”. In addition, in the assay with U87MG cells [2], the “ability of the cells to invade the Matrigel chamber” value (shortened to “ability of the cells”) is “impaired the ability of the cells to invade”, the invasion result is “did not show a decrease” and the “cell invasion (cells crossing matrigel membrane)” value is “significantly inhibited cell invasion; also recorded: reduces the invasive ability”. Moreover, the “IC50 against DYRK1A point mutant versus wild-type” value against DYRK1A point mutants [3] is “significantly higher”. For the same compound, on DYRK1A point mutants [4], the “IC50 against DYRK1A double mutant versus wild-type” value is on record as “even higher”. In addition, on DYRK1A point mutants [5], the “IC50 against DYRK1A point mutant versus wild-type” value is on record as “significantly higher”. Moreover, the kinase specificity entry in assay [6] is “very specific to the DYRK family of kinases”. For the same compound, the “ability of the cells” value in the assay on LN229 [7] was “impaired the ability of the cells to invade”. Besides, the “neurosphere proliferation (neurosphere numbers and size)” value in the assay with LN229 [8] is reported as “significant decrease in neurosphere proliferation”. For the same compound, the concentration for half-maximal inhibition (IC50) at DYRK1A is 19 nM.
For the compound `O=C(c1ccc(O)c(O)c1)c1nc2cc(O)c(O)cc2s1` [FC-3, (5,6-Dihydroxybenzo[d]thiazol-2-yl)(3,4-dihydroxyphenyl)methanone], at PIM1, the “PIM1 IC50 (nm)” value is recorded as “Micromolar inhibition”. In the assay on U87MG cells [1], the “proliferation of U87MG cells, assessed” value is reported as “significantly inhibited proliferation”; the neurosphere proliferation entry is “did not show a decrease”; the “neurosphere proliferation (neurosphere numbers and size)” value is “significant decrease in neurosphere proliferation”. In the assay with U87MG cells [2], the “ability of the cells” value is “impaired the ability of the cells to invade”, the invasion entry was “did not show a decrease” and the “cell invasion (cells crossing matrigel membrane)” value is “significantly inhibited cell invasion; also recorded: reduces the invasive ability”. In addition, on DYRK1A point mutants [3], the “IC50 against DYRK1A point mutant versus wild-type” value is listed as “significantly higher”. Moreover, on DYRK1A point mutants [9], the “IC50 against DYRK1A point mutant versus wild-type” value was “significantly higher”. Moreover, the “IC50 against DYRK1A double mutant versus wild-type” value against DYRK1A point mutants [4] is on record as “even higher”. In addition, the “IC50 against DYRK1A point mutant versus wild-type” value against DYRK1A point mutants [5] is “significantly higher”. The kinase specificity result in [6] is reported as “very specific to the DYRK family of kinases”. In addition, the “ability of the cells” value in the assay on LN229 [7] is listed as “impaired the ability of the cells to invade”. In addition, the “neurosphere proliferation (neurosphere numbers and size)” value with LN229 [8] is given as “significant decrease in neurosphere proliferation”. Further, the half-maximal inhibitory concentration (IC50) on DYRK1A came to 53 nM.
Take `COc1cc(O)c(C(=O)c2nc3cc(O)c(O)cc3s2)cc1O` [FC-4, (2,5-Dihydroxy-4-methoxyphenyl)(5,6-dihydroxybenzo[d]thiazol-2-yl)methanone]: the IC50 against PIM1 amounted to 174 nM; on DYRK1A, 87 nM.
In the same order, the values of `Oc1cc2nc(-c3ccc(O)c(O)c3O)sc2cc1O` [FC-5] are 144 nM and 95 nM.
In the same order, the values of `COc1cc(O)c(C(=O)c2nc3cc(O)ccc3s2)cc1O` [FC-6, (2,5-Dihydroxy-4-methoxyphenyl)(5-hydroxybenzo[d]thiazol-2-yl)methanone] are 552 nM and 180 nM.
Regarding `O=C(c1ccc(O)c(O)c1)c1nc2c(O)ccc(O)c2s1` [FC-7, (4,7-Dihydroxybenzo[d]thiazol-2-yl)(3,4-dihydroxyphenyl)methanone], the “PIM1 IC50 (nm)” value on PIM1 is “Micromolar inhibition”. Besides, the IC50 on DYRK1A was 229 nM.
For the compound `COc1ccc(O)c2nc(C(=O)c3ccc(O)c(O)c3)sc12` [FC-7A, (3,4-dihydroxyphenyl)(4-hydroxy-7-methoxybenzo[d]thiazol-2-yl)methanone], the IC50 on DYRK1A came out at 560 nM.
With `COc1ccc(C(=O)c2nc3cc(O)c(O)cc3s2)cc1F` [FC-8, (5,6-Dihydroxybenzo[d]thiazol-2-yl)(3-fluoro-4-methoxyphenyl)methanone], the IC50 against PIM1 came to 317 nM; at DYRK1A, 238 nM.
Turning to `Oc1ccc(-c2nc3ccc4nn[nH]c4c3s2)cc1O` [FC-10, 4-(1H-thiazolo[5′,4′:3,4]benzo[1,2-d][1,2,3]triazol-7-yl)benzene-1,2-diol], the IC50 on DYRK1A stood at 110 nM.
Still for that read-out and setting: to `Oc1ccc(-c2nc3c(ccc4[nH]cnc43)s2)cc1O` [FC-14, 4-(6H-imidazo[4′,5′:5,6]benzo[1,2-d]thiazol-2-yl)benzene-1,2-diol] belongs 400 nM.
Turning to `O=C(c1nc2cc(O)c(O)cc2s1)c1cc(O)c(O)cc1O` [FC-63], at PIM1, half-maximal inhibition (IC50) required 238 nM.
Take `O=[N+]([O-])c1ccc(O)cc1-c1nc2cc3c(cc2s1)OCO3` [FC-115]: the “PIM1 IC50 (nm)” value at PIM1 is on record as “No Inhibition”. The IC50 on DYRK1A was determined as 524 nM.
For `Oc1ccc(-c2nc3ccc4[nH]ncc4c3s2)cc1O` [FC-196, 4-(6H-thiazolo[5,4-e]indazol-2-yl)benzene-1,2-diol], the IC50 at DYRK1A was 500 nM.
The same measure, in the same setting: to `Oc1ccc(-c2nc3cc4cn[nH]c4cc3s2)cc1O` [FC-204, 4-(1H-thiazolo[4,5-f]-indazol-6-yl)benzene-1,2-diol] belongs 57 nM; to `COc1ccc(-c2nc3cc4cn[nH]c4cc3s2)cc1OC` [FC-205, 6-(3,4-dimethoxyphenyl)-1H-thiazolo[4,5-f]-indazole], 206 nM.
With `S=C1Cc2ccc(-c3nc4cc5c(cc4s3)OCO5)cc2N1` [FC-208], on DYRK1A, the IC50 was found to be 560 nM.
On to `CCN1/C(=C/C(C)=O)Sc2ccc(O)cc21` [INDY, reference compound], for which, in the assay on U87MG cells [1], the “proliferation of U87MG cells, assessed” value is “did not inhibit proliferation”.

For orientation: IC50 means the concentration at which inhibition is half-maximal.
